This note sets out measurements from US9206219B2, “17-hydroxy-17-pentafluorethyl-estra-4,9(10)-dien-11-aryl derivatives, methods for the production thereof and the use thereof for treating diseases” (Bayer Intellectual Property GmbH, priority 2009, dated 2015).

For experiment [1], the target named is T1, human progesterone receptor B (Homo sapiens, UniProt P06401).
T1 construct: expressed in transfected cells; host or cells: SK-N-MC human neuroblastoma cells, stably transfected with pRChPR-B-neo and pMMTV-LUC
T1 sequence (P06401 1-933): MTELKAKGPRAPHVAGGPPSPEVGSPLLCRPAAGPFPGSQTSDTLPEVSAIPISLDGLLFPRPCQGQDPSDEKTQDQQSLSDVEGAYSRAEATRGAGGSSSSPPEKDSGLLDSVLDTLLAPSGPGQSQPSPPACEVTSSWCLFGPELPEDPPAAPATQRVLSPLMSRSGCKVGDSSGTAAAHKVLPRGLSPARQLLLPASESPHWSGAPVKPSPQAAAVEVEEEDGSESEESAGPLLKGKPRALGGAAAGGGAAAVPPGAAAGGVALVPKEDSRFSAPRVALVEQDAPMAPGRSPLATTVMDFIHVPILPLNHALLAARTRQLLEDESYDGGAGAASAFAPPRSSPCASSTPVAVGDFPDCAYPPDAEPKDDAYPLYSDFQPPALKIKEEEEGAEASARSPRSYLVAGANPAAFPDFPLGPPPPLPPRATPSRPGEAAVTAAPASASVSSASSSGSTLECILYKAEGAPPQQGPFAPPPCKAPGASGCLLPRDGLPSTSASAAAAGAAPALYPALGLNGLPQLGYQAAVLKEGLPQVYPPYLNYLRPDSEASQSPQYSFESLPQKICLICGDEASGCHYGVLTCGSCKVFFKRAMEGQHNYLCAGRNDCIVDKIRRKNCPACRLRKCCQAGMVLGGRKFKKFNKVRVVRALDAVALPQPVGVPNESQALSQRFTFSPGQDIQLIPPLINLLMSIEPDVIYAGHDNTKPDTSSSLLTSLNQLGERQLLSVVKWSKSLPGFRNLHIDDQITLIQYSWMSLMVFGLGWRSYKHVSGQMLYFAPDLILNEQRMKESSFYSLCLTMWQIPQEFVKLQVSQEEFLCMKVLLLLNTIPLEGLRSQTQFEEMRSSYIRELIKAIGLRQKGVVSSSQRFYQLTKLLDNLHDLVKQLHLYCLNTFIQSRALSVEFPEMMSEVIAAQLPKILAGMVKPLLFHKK
As to the kind of experiment: Progesterone receptor-antagonistic action in stably transfected SK-N-MC cells, MMTV-LUC reporter (PR-B). In kind it is cell-based. Particulars: antagonistic potency vs 0.1 nmol/l promegestone, 24 hours. How it is done: (§1) Progesterone Receptor-Antagonistic Action in Stable Transfectants of Human Neuroblastoma Cells (SK-N-MC Cells) with the Human Progesterone A or Progesterone B Receptor and an MN-LUC Reporter Construct
(§2) SK-N-MC cells (human neuroblastoma cells) which have been stably transfected with plasmids expressing the human progesterone receptor B (pRChPR-B-neo) or the human progesterone receptor A (pRChPR-A-neo) and a reporter construct (pMMTV-LUC) were incubated for 24 hours either in the absence (negative control) or in the presence of ascending amounts of the particular test compound (0.01 nmol/l, 0.1 nmol/l, 1 nmol/l, 10 nmol/l, 100 nmol/l and […]), in order to determine the agonistic efficacy. As a positive control of the reporter gene induction, the cells were treated with the synthetic gestagen promegestone (0.01 nmol/l, 0.1 nmol/l, 1 nmol/l, 10 nmol/l, 100 nmol/l and […]). To determine the antagonistic activity, the cells were treated with 0.1 nmol/l promegestone and additionally with ascending amounts of the particular test compound (0.01 nmol/l, 0.1 nmol/l, 1 nmol/l, 10 nmol/l, 100 nmol/l and […]). The activity of the reporter gene LUC (LUC=luciferase) was determined in the cell lysates and measured as RLU (relative light units). All measurements are reported as % efficacy and as EC50 and IC50 concentrations.

For experiment [2], the target named is T2, human progesterone receptor A (Homo sapiens, UniProt P06401).
T2 construct: expressed in transfected cells; host or cells: SK-N-MC human neuroblastoma cells, stably transfected with pRChPR-A-neo and pMMTV-LUC
T2 sequence (P06401 1-769 isoform P06401-2): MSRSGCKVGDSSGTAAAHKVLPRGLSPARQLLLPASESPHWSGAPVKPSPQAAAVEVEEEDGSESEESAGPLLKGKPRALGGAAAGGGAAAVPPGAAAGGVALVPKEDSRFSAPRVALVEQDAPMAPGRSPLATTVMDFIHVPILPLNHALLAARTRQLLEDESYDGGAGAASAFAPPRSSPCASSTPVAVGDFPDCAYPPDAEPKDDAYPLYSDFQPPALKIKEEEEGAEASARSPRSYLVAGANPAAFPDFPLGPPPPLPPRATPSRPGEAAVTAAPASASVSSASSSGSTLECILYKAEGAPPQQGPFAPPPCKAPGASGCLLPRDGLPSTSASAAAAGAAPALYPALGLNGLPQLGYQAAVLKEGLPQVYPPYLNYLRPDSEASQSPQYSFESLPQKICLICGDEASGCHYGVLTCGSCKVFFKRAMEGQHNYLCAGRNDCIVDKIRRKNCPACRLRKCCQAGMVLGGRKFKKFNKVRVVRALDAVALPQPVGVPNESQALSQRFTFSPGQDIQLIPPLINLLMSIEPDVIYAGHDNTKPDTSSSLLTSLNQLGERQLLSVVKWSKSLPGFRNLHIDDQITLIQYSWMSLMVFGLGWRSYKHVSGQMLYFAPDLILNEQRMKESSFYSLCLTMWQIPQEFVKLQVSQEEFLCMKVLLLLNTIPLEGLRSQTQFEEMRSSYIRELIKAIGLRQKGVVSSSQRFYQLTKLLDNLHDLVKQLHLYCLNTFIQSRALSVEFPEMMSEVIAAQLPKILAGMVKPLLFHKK
As to the kind of experiment: Progesterone receptor-antagonistic action in stably transfected SK-N-MC cells, MMTV-LUC reporter (PR-A). Type of experiment: cell-based. Particulars: antagonistic potency vs 0.1 nmol/l promegestone, 24 hours. How it is done:
as §1, §2

Structures are written as SMILES.

With `CC(O)c1cccc([C@H]2C[C@@]3(C)C(CC[C@@]3(O)C(F)(F)C(F)(F)F)C3CCC4=CC(=O)CCC4=C32)c1` (mixture of isomers) [Example 11, (8S,11R,13S,14S,17S)-17-hydroxy-11-[3-((RS)-1-hydroxyethyl)phenyl]-13-methyl-17-pentafluoroethyl-1,2,6,7,8,11,12,13,14,15,16,17-dodecahydrocyclopenta[a]phenanthren-3-one], the half-inhibitory concentration (IC50) in experiment [1] stood at 3 nM; in experiment [2], 2 nM.

For the compound `C[C@]12C[C@H](c3ccc([C@@H]4CC4CO)cc3)C3=C4CCC(=O)C=C4CCC3C1CC[C@@]2(O)C(F)(F)C(F)(F)F` (single isomer, unassigned) [Example 6A], the IC50 in experiment [1] and in experiment [2] was 0.1 nM throughout.

For the compound `C[C@]12C[C@H](c3ccc(C4CC4)cc3)C3=C4CCC(=O)C=C4CC[C@H]3[C@@H]1CC[C@@]2(O)C(F)(F)C(F)(F)F` [Example 1, (8S,11R,13S,14S,17S)-11-(4-cyclopropylphenyl)-17-hydroxy-13-methyl-17-pentafluoroethyl-1,2,6,7,8,11,12,13,14,15,16,17-dodecahydrocyclopenta[a]phenanthren-3-one], the IC50 is 0.004 nM in experiment [1] and less than 0.001 nM in experiment [2].

For the compound `CC(=O)c1cccc([C@H]2C[C@@]3(C)[C@@H](CC[C@@]3(O)C(F)(F)C(F)(F)F)[C@@H]3CCC4=CC(=O)CCC4=C32)c1` [Example 10, (8S,11R,13S,14S,17S)-11-(3-acetylphenyl)-17-hydroxy-13-methyl-17-pentafluoroethyl-1,2,6,7,8,11,12,13,14,15,16,17-dodecahydrocyclopenta[a]phenanthren-3-one], the figures for the IC50 in experiment [1] and in experiment [2] were 3 nM and 5 nM, respectively.

As to `C[C@]12C[C@H](c3cccc(C4CC4)c3)C3=C4CCC(=O)C=C4CC[C@H]3[C@@H]1CC[C@@]2(O)C(F)(F)C(F)(F)F` [Example 12, (8S,11R,13S,14S,17S)-11-(3-cyclopropylphenyl)-17-hydroxy-13-methyl-17-pentafluoroethyl-1,2,6,7,8,11,12,13,14,15,16,17-dodecahydrocyclopenta[a]phenanthren-3-one], the IC50 amounted to 9 nM in experiment [1] and 4 nM in experiment [2].

Regarding `CC1(c2cccc([C@H]3C[C@@]4(C)[C@@H](CC[C@@]4(O)C(F)(F)C(F)(F)F)[C@@H]4CCC5=CC(=O)CCC5=C43)c2)CC1` [Example 13, (8S,11R,13S,14S,17S)-17-hydroxy-13-methyl-11-[3-(1-methylcyclopropyl)phenyl]-17-pentafluoroethyl-1,2,6,7,8,11,12,13,14,15,16,17-dodecahydrocyclopenta[a]phenanthren-3-one], the values for the IC50 in experiment [1] and in experiment [2] were 7 nM and 4 nM, respectively.

Turning to `C[C@]12C[C@H](c3cccc(CCO)c3)C3=C4CCC(=O)C=C4CC[C@H]3[C@@H]1CC[C@@]2(O)C(F)(F)C(F)(F)F` [Example 14, (8S,11R,13S,14S,17S)-17-hydroxy-11-[3-(2-hydroxyethyl)phenyl]-13-methyl-17-pentafluoroethyl-1,2,6,7,8,11,12,13,14,15,16,17-dodecahydrocyclopenta[a]phenanthren-3-one], the IC50 in experiment [1] and in experiment [2] was 1 nM each time.

As to `C[C@]12C[C@H](c3ccc(C(CO)CO)cc3)C3=C4CCC(=O)C=C4CC[C@H]3[C@@H]1CC[C@@]2(O)C(F)(F)C(F)(F)F` [Example 16, (8S,11R,13S,14S,17S)-17-hydroxy-11-[4-(2-hydroxy-1-hydroxymethylethyl)phenyl]-13-methyl-17-pentafluoroethyl-1,2,6,7,8,11,12,13,14,15,16,17-dodecahydrocyclopenta[a]phenanthren-3-one], the IC50 in experiment [1] was found to be 1 nM; in experiment [2], 0.8 nM.

Consider `C=CCNC(=O)NCc1ccc([C@H]2C[C@@]3(C)[C@@H](CC[C@@]3(O)C(F)(F)C(F)(F)F)[C@@H]3CCC4=CC(=O)CCC4=C32)cc1` [Example 18, 1-allyl-3-[4-((8S,11R,13S,14S,17S)-17-hydroxy-13-methyl-3-oxo-17-pentafluoroethyl-2,3,6,7,8,11,12,13,14,15,16,17-dodecahydro-1H-cyclopenta[a]phenanthren-11-yl)benzyl]urea], for which the IC50 in experiment [1] and in experiment [2] was 0.8 nM throughout.

Regarding `CC(C)NC(=O)NCc1ccc([C@H]2C[C@@]3(C)[C@@H](CC[C@@]3(O)C(F)(F)C(F)(F)F)[C@@H]3CCC4=CC(=O)CCC4=C32)cc1` [Example 19, 1-isopropyl-3-[4-((8S,11R,13S,14S,17S)-17-hydroxy-13-methyl-3-oxo-17-pentafluoroethyl-2,3,6,7,8,11,12,13,14,15,16,17-dodecahydro-1H-cyclopenta[a]phenanthren-11-yl)benzyl]urea], the IC50 is 0.7 nM in experiment [1] and 0.6 nM in experiment [2].

In the case of `CC(C)(C)NC(=O)NCc1ccc([C@H]2C[C@@]3(C)[C@@H](CC[C@@]3(O)C(F)(F)C(F)(F)F)[C@@H]3CCC4=CC(=O)CCC4=C32)cc1` [Example 20, 1-tert-butyl-3-[4-((8S,11R,13S,14S,17S)-17-hydroxy-13-methyl-3-oxo-17-pentafluoroethyl-2,3,6,7,8,11,12,13,14,15,16,17-dodecahydro-1H-cyclopenta[a]phenanthren-11-yl)benzyl]urea], the IC50 in experiment [1] was 1 nM; in experiment [2] it was 0.7 nM.

As for `CCOC(=O)CNC(=O)NCc1ccc([C@H]2C[C@@]3(C)[C@@H](CC[C@@]3(O)C(F)(F)C(F)(F)F)[C@@H]3CCC4=CC(=O)CCC4=C32)cc1` [Example 21, {3-[4-((8S,11R,13S,14S,17S)-17-hydroxy-13-methyl-3-oxo-17-pentafluoroethyl-2,3,6,7,8,11,12,13,14,15,16,17-dodecahydro-1H-cyclopenta[a]phenanthren-11-yl)benzyl]ureido}acetic acid ethyl ester], the IC50 in experiment [1] came to 2.4 nM; in experiment [2] it was 1.2 nM.

`CCOC(=O)CCNC(=O)NCc1ccc([C@H]2C[C@@]3(C)[C@@H](CC[C@@]3(O)C(F)(F)C(F)(F)F)[C@@H]3CCC4=CC(=O)CCC4=C32)cc1` [Example 22, 3-{3-[4-((8S,11R,13S,14S,17S)-17-hydroxy-13-methyl-3-oxo-17-pentafluoroethyl-2,3,6,7,8,11,12,13,14,15,16,17-dodecahydro-1H-cyclopenta[a]phenanthren-11-yl)benzyl]ureido}propionic acid ethyl ester]: the IC50 in experiment [1] was 0.6 nM; in experiment [2], 0.5 nM.
